Measurements as given in ChEMBL document CHEMBL1201862, “PubChem BioAssay data set” (2004).
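96-well plates; 48 h exposure; 5 concentrations. Endpoints by linear interpolation between flanking doses. Not reached: highest tested concentration assigned. The concentration for 50% growth inhibition is given as GI50.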 Active and inactive are the calls of the source. No stated cut-off is given here; in the data, active = GI50 up to about 1.1 µM and inactive = higher.

How the values were obtained:
Test in all cases: NCI anticancer screen, dose series, 48 h
[1] = system: NCI-H226
[2] = system: UO-31
[3] = system: NCI-H23
[4] = system: RPMI-8226
[5] = system: A549
[6] = system: OVCAR-5
[7] = system: HOP-62
[8] = system: SK-OV-3
[9] = system: TK-10
[10] = system: OVCAR-3
[11] = system: SK-MEL-5
[12] = system: SF-295
[13] = system: MOLT-4
[14] = system: SN12C
[15] = system: SF-268
[16] = system: HCT-116
[17] = system: OVCAR-8
[18] = system: UACC-257

Measured: GI50

O=c1[nH]n2c(=O)cc[nH]c2c1-c1nnns1
inactive: [1] > 100 µM | [2] > 100 µM | [3] > 100 µM | [4] > 100 µM | [5] > 100 µM | [6] > 100 µM | [7] > 100 µM | [8] > 100 µM | [9] > 100 µM | [10] > 100 µM | [11] > 100 µM | [12] > 100 µM | [13] > 100 µM | [14] > 100 µM | [15] > 100 µM | [16] > 100 µM

CC(C)N(C(=O)C12C3C4C5C3C1(C(=O)N(C(C)C)C(C)C)C5(C#N)C42)C(C)C (stereo not drawn)
inactive: [1] > 100 µM | [2] > 100 µM | [17] > 100 µM | [3] > 100 µM | [4] 26.7 µM | [5] 86.3 µM | [6] > 100 µM | [7] > 100 µM | [8] > 100 µM | [9] > 100 µM | [10] > 100 µM | [11] > 100 µM | [12] > 100 µM | [18] > 100 µM | [13] > 100 µM | [14] > 100 µM | [15] > 100 µM | [16] 38.4 µM

O=C(O)[C@H](NS(=O)(=O)c1ccc([N+](=O)[O-])cc1)c1ccccc1
inactive: [1] > 100 µM | [2] > 100 µM | [17] > 100 µM | [3] > 100 µM | [4] > 100 µM | [5] > 100 µM | [6] > 100 µM | [7] > 100 µM | [8] > 100 µM | [9] > 100 µM | [10] > 100 µM | [11] > 100 µM | [12] > 100 µM | [18] > 100 µM | [13] > 100 µM | [14] > 100 µM | [15] > 100 µM | [16] > 100 µM

C/N=C(\N)c1ccc(NC(=N)c2ccc(C(=N)Nc3ccc(/C(N)=N/C)cc3)cc2)cc1
inactive: [1] > 100 µM | [2] > 100 µM | [17] > 100 µM | [4] > 100 µM | [5] > 100 µM | [6] > 100 µM | [7] > 100 µM | [8] > 100 µM | [9] > 100 µM | [10] > 100 µM | [11] > 100 µM | [12] > 100 µM | [18] > 100 µM | [13] > 100 µM | [14] > 100 µM | [15] > 100 µM
